Values of other authors as cited in US20100255105A1, “EXTENDED RELEASE PHARMACEUTICAL COMPOSITION COMPRISING METOPROLOL SUCCINATE” (ZAKLADY FARMACEUTYCZNE POLPHARMA S.A., priority 2009, published 2010).

Settings: water at 37° C.

## COCCc1ccc(OCC(O)CNC(C)C)cc1 (stereo not shown) [metoprolol succinate]
  solubility in water: 276 mg/mL
